{"source": "patent EP4786486A1", "about": "“PEPTIDES FOR TREATING CARDIAC DISEASES” (Universidad Complutense De Madrid, priority 2023, dated 2025)", "key": {"[1]": {"system": "human cardiac Nav1.5 channels", "assay": "INa by whole-cell patch-clamp in CHO cells incubated with synthetic peptide", "format": "cell-based", "conditions": "CHO cells expressing Nav1.5, incubated 24 hours, 10 µM, vs untreated control cells", "method": "(§1) To analyse the effect of the peptides designed in example 1 on INa and IK1, the cDNA that encodes SEQ ID NO: 3 or SEQ ID NO: 4, described in SEQ ID NO: 5 and 20, respectively, was cloned into a pcDNA3.1^(+)® vector (Invitrogen) for transfection of Chinese hamster ovary (CHO) cells that were in turn transfected with the cDNA that encodes the human Nav1.5 channels (SEQ ID NO: 21). The CHO cells were further co-transfected with the EBO-pcD leu 2 vector (0.5 µg), which encodes the expression of the CD8 surface antigen. The subsequent addition of anti-CD8 antibody, bonded to Dynabeads M450® microspheres, allowed the cells that had been transfected to be identified. […] The currents were recorded at 20-22°C using an Axopatch 200B amplifier, filtered at half the sampling frequency and stored in a computer for further analysis. […] The capacitive current artefacts generated after the application of pulses from 0 mV to +10 mV were recorded at 50 kHz (filtered at 10 kHz) to calculate the capacitance of the cell, the access resistance and the input impedance. […] INa was recorded by applying 50 ms pulses from a holding potential of -120 mV to potentials between -80 and +50 mV in 5 mV increments. […]"}, "HEK293 cells": {"system": "HEK293 cells", "assay": "Access to the cell interior of fluorescent peptides, fluorescence microscopy", "format": "cell-based", "conditions": "24 hours, 10 µM, green fluorescent signal"}, "human Nav1.5 channels": {"molecular_target": "T1, human Nav1.5 channels (Homo sapiens, UniProt Q14524)", "T1 construct": "expressed in transfected cells; host or cells: CHO (Chinese hamster ovary) cells", "T1 sequence (Q14524 1-2015 isoform Q14524-2)": "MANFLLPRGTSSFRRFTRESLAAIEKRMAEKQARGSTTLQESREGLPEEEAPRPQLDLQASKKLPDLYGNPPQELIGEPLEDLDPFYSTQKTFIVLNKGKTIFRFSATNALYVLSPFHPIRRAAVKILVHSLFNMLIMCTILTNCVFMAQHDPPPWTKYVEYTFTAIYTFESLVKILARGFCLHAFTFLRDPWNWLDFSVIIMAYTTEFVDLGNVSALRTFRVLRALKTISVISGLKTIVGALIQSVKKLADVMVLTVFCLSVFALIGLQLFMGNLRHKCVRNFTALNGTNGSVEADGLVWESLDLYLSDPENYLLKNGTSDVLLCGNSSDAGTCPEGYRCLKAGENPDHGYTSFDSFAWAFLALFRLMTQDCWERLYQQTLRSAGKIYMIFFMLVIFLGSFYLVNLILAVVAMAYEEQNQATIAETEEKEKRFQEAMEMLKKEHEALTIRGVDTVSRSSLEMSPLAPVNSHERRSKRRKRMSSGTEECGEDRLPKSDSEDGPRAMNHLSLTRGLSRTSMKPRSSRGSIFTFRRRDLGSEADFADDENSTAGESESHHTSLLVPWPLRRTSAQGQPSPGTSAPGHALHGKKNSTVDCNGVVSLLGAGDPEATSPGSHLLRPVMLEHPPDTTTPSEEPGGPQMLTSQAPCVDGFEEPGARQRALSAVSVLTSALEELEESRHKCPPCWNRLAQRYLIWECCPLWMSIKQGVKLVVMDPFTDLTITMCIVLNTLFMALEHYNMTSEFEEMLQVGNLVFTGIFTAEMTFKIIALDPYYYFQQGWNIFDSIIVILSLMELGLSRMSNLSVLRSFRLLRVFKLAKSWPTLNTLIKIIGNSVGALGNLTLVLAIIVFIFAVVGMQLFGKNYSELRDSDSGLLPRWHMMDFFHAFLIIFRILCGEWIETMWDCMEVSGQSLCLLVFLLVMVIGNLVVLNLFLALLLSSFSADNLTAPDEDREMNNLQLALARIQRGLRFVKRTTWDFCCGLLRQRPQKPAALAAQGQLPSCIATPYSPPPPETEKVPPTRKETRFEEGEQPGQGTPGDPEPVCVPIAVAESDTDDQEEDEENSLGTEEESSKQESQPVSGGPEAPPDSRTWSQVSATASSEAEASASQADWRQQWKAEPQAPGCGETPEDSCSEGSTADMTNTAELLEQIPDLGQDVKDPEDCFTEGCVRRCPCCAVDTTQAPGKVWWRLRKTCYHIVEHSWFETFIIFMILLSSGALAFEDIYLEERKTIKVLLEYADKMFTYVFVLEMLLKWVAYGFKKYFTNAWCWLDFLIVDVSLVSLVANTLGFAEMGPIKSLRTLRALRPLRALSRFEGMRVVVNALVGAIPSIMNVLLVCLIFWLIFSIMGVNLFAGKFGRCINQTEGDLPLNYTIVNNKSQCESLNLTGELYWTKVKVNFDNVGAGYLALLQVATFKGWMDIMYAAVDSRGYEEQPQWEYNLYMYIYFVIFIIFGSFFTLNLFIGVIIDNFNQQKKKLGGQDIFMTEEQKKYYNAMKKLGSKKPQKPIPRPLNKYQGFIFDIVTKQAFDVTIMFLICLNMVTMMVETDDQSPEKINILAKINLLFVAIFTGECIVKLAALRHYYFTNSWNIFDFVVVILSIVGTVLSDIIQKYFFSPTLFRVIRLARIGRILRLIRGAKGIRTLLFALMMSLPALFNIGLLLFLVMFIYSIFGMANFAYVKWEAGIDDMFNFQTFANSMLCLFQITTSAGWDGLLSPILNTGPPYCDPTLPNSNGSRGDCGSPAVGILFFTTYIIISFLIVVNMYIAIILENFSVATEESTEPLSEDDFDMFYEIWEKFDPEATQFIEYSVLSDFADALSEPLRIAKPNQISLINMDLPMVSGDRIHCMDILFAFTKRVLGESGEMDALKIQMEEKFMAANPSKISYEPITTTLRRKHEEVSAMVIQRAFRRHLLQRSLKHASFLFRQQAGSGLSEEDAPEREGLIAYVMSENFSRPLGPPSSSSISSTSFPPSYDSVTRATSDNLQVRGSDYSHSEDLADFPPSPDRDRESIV", "assay": "INa density, whole-cell patch-clamp in CHO cells co-transfected with Nav1.5 and the cDNA encoding the peptide", "format": "cell-based", "conditions": "vs. cells transfected only with Nav1.5 channels, various membrane potentials, P<0.05", "method": "as §1"}, "[2]": {"assay": "Conformational study by circular dichroism (helicity)", "format": "physicochemical", "conditions": "for Helicity in 60:40 H2O/TFE (%) / Helicity in H2O (%): circular dichroism, 10 µM, 5°C", "method": "Circular dichroism spectra were recorded in aqueous solution and in a 60:40 H2O:trifluoroethanol (TFE) mixture. The concentration used was 10 µM and the temperature (T) was adjusted to 5°C. Measurements were made between 190 and 250 nm using a 0.1 cm optical pitch cell. The experiments were carried out at a scanning rate of 50 nm/min, a response time of 2 s and a bandwidth of 1 nm. The spectra obtained are the average of 4 sweeps to which the baseline was corrected.\nTo calculate helicity, the equation [θ]222/[θ]max. was used, where [θ]max = (-44000+250T) ([…]). As a finite length correction value (k), the value of k = 4 was taken, while n refers to the number of residues in the peptides. Table 6. Helicity observed by circular dichroism for the peptides studied."}, "[3]": {"assay": "Stability in human blood serum, UPLC-MS", "format": "in vitro ADME", "conditions": "37°C", "method": "A 1 mM dilution of the peptide in water was prepared and 0.5 ml was taken and mixed with 0.5 ml of human serum. The resulting solution was incubated for 72 hours at 37°C. After 24 hours and 72 hours, 120 µl aliquots were taken and treated with 20 µl trifluoroacetic acid to precipitate the proteins. After 30 minutes at 4°C, the mixture was centrifuged at 13000 g and 4°C. The supernatant, once filtered, was analysed by UPLC-MS using a C18 Bridge column (3.0 mm x 50 mm, 2.5 µm) and a gradient of 15 and 50% CH3CN (0.1% formic acid) in H2O (0.1% formic acid) over 5 minutes."}}, "note": "Where a SMILES comes first, the peptide text is derived from it. The star is where a group is joined. FITC = O=C1OC2(c3ccc(O)cc3Oc3cc(O)ccc32)c2ccc(NC(=S)*)cc21; Palmitoyl = CCCCCCCCCCCCCCCC(=O)*", "data": [{"compound": "Pal-FTRESLAAIEK-NH2 (Palmitoyl-FTRESLAAIEK-NH2; SMILES CCCCCCCCCCCCCCCC(=O)N[C@@H](Cc1ccccc1)C(=O)N[C@H](C(=O)N[C@@H](CCCNC(=N)N)C(=O)N[C@@H](CCC(=O)O)C(=O)N[C@@H](CO)C(=O)N[C@@H](CC(C)C)C(=O)N[C@@H](C)C(=O)N[C@@H](C)C(=O)N[C@H](C(=O)N[C@@H](CCC(=O)O)C(=O)N[C@@H](CCCCN)C(N)=O)[C@@H](C)CC)[C@@H](C)O) [Pal-SEQ ID NO: 25-NH2]", "values": [{"measurement": "INa", "setting": "[1]", "result": "statistically significantly increase INa"}]}, {"compound": "CC[C@H](C)[C@H](NC(=O)[C@H](C)NC(=O)[C@H](C)NC(=O)[C@H](CC(C)C)NC(=O)[C@H](CO)NC(=O)[C@H](CCC(=O)O)NC(=O)[C@H](CCCNC(=N)N)NC(=O)[C@@H](NC(=O)[C@H](Cc1ccccc1)NC(=O)[C@H](CCCNC(=N)N)NC(C)=O)[C@@H](C)O)C(=O)N[C@@H](CCC(=O)O)C(=O)N[C@@H](CCCCNC(=S)Nc1ccc2c(c1)C(=O)OC21c2ccc(O)cc2Oc2cc(O)ccc21)C(N)=O", "note": "[Ac-SEQ ID NO: 23(SF)-NH2, Ac-RFTRESLAAlEK(SF)-NH2] (Ac-RFTRESLAAIEK(FITC)-NH2)", "values": [{"measurement": "ability to penetrate into the cell interior", "setting": "HEK293 cells", "result": "not able to penetrate"}]}, {"compound": "EKRMAEKQARGSTTL (listed as Homo sapiens) [SEQ ID NO: 4, 15-amino acid peptide, amino acids 25-39 of human Nav1.5]", "values": [{"measurement": "density of INa", "setting": "human Nav1.5 channels", "result": "did not"}]}, {"compound": "Ac-RFTRESLAAIE-NH2 [Ac-SEQ ID NO: 3-NH2, Ac-RFTRESLAAIE-NH2]", "values": [{"measurement": "Helicity in 60:40 H2O/TFE (%)", "setting": "[2]", "result": 32.3, "unit": "%"}, {"measurement": "Helicity in H2O (%)", "setting": "[2]", "result": 2.7, "unit": "%"}]}, {"compound": "Ac-FTRESLAAIEKR-NH2 [Ac-SEQ ID NO: 26-NH2, Ac-FTRESLAAIEKR-NH2]", "values": [{"measurement": "Helicity in 60:40 H2O/TFE (%)", "setting": "[2]", "result": 35.5, "unit": "%"}, {"measurement": "Helicity in H2O (%)", "setting": "[2]", "result": 10.8, "unit": "%"}, {"measurement": "remaining at 24 h, 0.5 mM", "setting": "[3]; human blood serum diluted 50:50 with water, human blood serum/H2O (50:50), after 24 hours of incubation, read-out: peptide remained unchanged", "result": 82, "unit": "%"}, {"measurement": "half-life", "setting": "[3]; human blood serum, estimated taking into account serum concentration of 50%", "result": 27, "unit": "h"}]}, {"compound": "Ac-FTRESLAAIEK-NH2 [Ac-SEQ ID NO: 25-NH2, Ac-FTRESLAAIEK-NH2]", "values": [{"measurement": "Helicity in 60:40 H2O/TFE (%)", "setting": "[2]", "result": 46.2, "unit": "%"}, {"measurement": "Helicity in H2O (%)", "setting": "[2]", "result": 10.7, "unit": "%"}, {"measurement": "increase in helicity in H2O", "setting": "[2]; compared with Ac-SEQ ID NO: 3-NH2", "result": 8, "unit": "%"}]}, {"compound": "CCCCCCCCCCCCCCCC(=O)N[C@@H](CCCNC(=N)N)C(=O)N[C@@H](Cc1ccccc1)C(=O)N[C@H](C(=O)N[C@@H](CCCNC(=N)N)C(=O)N[C@@H](CCC(=O)O)C(=O)N[C@@H](CO)C(=O)N[C@@H](CC(C)C)C(=O)N[C@@H](C)C(=O)N[C@@H](C)C(=O)N[C@H](C(=O)N[C@@H](CCC(=O)O)C(=O)N[C@@H](CCCCNC(=S)Nc1ccc2c(c1)C(=O)OC21c2ccc(O)cc2Oc2cc(O)ccc21)C(N)=O)[C@@H](C)CC)[C@@H](C)O", "note": "[Pal-SEQ ID NO: 23(SF)-NH2, Pal-RFTRESLAAIEK(SF)-NH2] (Palmitoyl-RFTRESLAAIEK(FITC)-NH2)", "values": [{"measurement": "ability to penetrate into the cell interior", "setting": "HEK293 cells", "result": "good ability to penetrate"}]}, {"compound": "Pal-RFTRESLAAIEK-NH2 (Palmitoyl-RFTRESLAAIEK-NH2; SMILES CCCCCCCCCCCCCCCC(=O)N[C@@H](CCCNC(=N)N)C(=O)N[C@@H](Cc1ccccc1)C(=O)N[C@H](C(=O)N[C@@H](CCCNC(=N)N)C(=O)N[C@@H](CCC(=O)O)C(=O)N[C@@H](CO)C(=O)N[C@@H](CC(C)C)C(=O)N[C@@H](C)C(=O)N[C@@H](C)C(=O)N[C@H](C(=O)N[C@@H](CCC(=O)O)C(=O)N[C@@H](CCCCN)C(N)=O)[C@@H](C)CC)[C@@H](C)O) [Pal-SEQ ID NO: 23-NH2]", "values": [{"measurement": "INa", "setting": "[1]", "result": "statistically significantly increase INa"}]}]}
